According to PubChem BioAssay AID248 (DTP/NCI, 2004):
Values joined by “and” are separate entries in the source; they are usually repeats but may differ in a detail not shown here. Equal values may be shown once. Inconclusive results and toxic doses are left out. No stated cut-off is given here; in the data, active means T/C of 150% or more; inactive means T/C below 125%. Square brackets hold non-standard residues; d marks the D form. Peptide text beside a SMILES is read from it. * marks the point of attachment. Cbz = O=C(OCc1ccccc1)*; βAla = NCCC(=O)O

System: L1210 leukemia ip in BDF1 mice, survival T/C
Test: NCI In Vivo Anticancer Drug Screen. Data for tumor model L1210 Leukemia (intraperitoneal) in B6D2F1 (BDF1) mice
Conditions: endpoint: mean survival time, higher = longer survival
How it was run: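 Ratio derived from survival: compound-dosed mice over vehicle-dosed mice, all bearing a transplantable tumor.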

[1] = dose: 50.0 mg/kg/injection, schedule: Q01DX001 (ip), vehicle: saline with Tween-80
[2] = dose: 25.0 mg/kg/injection, schedule: Q04DX003 (ip), vehicle: saline
[3] = dose: 50.0 mg/kg/injection, schedule: Q04DX003 (ip), vehicle: saline
[4] = dose: 100.0 mg/kg/injection, schedule: Q04DX003 (ip), vehicle: saline
[5] = dose: 50.0 mg/kg/injection, schedule: Q01DX001 (ip), vehicle: carboxymethylcellulose (CMC)
[6] = dose: 100.0 mg/kg/injection, schedule: Q01DX001 (ip), vehicle: carboxymethylcellulose (CMC)
[7] = dose: 200.0 mg/kg/injection, schedule: Q01DX001 (ip), vehicle: carboxymethylcellulose (CMC)
[8] = dose: 200.0 mg/kg/injection, schedule: Q04DX003 (ip), vehicle: saline
[9] = dose: 400.0 mg/kg/injection, schedule: Q04DX003 (ip), vehicle: saline
[10] = dose: 100.0 mg/kg/injection, schedule: Q04DX003 (ip), vehicle: Klucel (hydroxypropylcellulose) (HPC)
[11] = dose: 200.0 mg/kg/injection, schedule: Q04DX003 (ip), vehicle: Klucel (hydroxypropylcellulose) (HPC)
[12] = dose: 400.0 mg/kg/injection, schedule: Q04DX003 (ip), vehicle: Klucel (hydroxypropylcellulose) (HPC)
[13] = dose: 100.0 mg/kg/injection, schedule: Q01DX001 (ip), vehicle: saline
[14] = dose: 100.0 mg/kg/injection, schedule: Q04DX003 (ip), vehicle: saline with Tween-80
[15] = dose: 200.0 mg/kg/injection, schedule: Q04DX003 (ip), vehicle: saline with Tween-80
[16] = dose: 400.0 mg/kg/injection, schedule: Q04DX003 (ip), vehicle: saline with Tween-80
[17] = dose: 100.0 mg/kg/injection, schedule: Q01DX009 (ip), vehicle: saline
[18] = dose: 50.0 mg/kg/injection, schedule: Q01DX009 (ip), vehicle: saline
[19] = dose: 100.0 mg/kg/injection, schedule: Q01DX009 (ip), vehicle: Klucel (hydroxypropylcellulose) (HPC)
[20] = dose: 200.0 mg/kg/injection, schedule: Q01DX009 (ip), vehicle: Klucel (hydroxypropylcellulose) (HPC)
[21] = dose: 6.25 mg/kg/injection, schedule: Q04DX003 (ip), vehicle: saline
[22] = dose: 200.0 mg/kg/injection, schedule: Q01DX009 (ip), vehicle: saline
[23] = dose: 200.0 mg/kg/injection, schedule: Q01DX001 (ip), vehicle: saline
[24] = dose: 400.0 mg/kg/injection, schedule: Q01DX001 (ip), vehicle: saline
[25] = dose: 100.0 mg/kg/injection, schedule: Q01DX001 (ip), vehicle: saline with Tween-80
[26] = dose: 200.0 mg/kg/injection, schedule: Q01DX001 (ip), vehicle: saline with Tween-80

Measured: T/C

O=c1c(Cl)c(C(Cl)(Cl)Cl)[nH]c2ccc([N+](=O)[O-])cc12
inactive: dose: 25.0 mg/kg/injection, schedule: Q01DX001 (ip), vehicle: saline with Tween-80 101 % of control | [1] 101 % of control

CN1CCC(OC(=O)C2CC(=O)N(C)C(=O)C2)CC1
inactive: [2] 98 % of control | [3] 98 % of control | [4] 100 % of control

Nc1nc2nc(-c3ccccc3)nc(N)c2nc1-c1ccc(N(CCCl)CCCl)cc1
inactive: [5] 98 % of control | [6] 95 % of control | [7] 101 % of control | dose: 400.0 mg/kg/injection, schedule: Q01DX001 (ip), vehicle: carboxymethylcellulose (CMC) 98 % of control

O=CC1(c2ccccc2)SCCCS1
inactive: [4] 106 % of control | [8] 97 % of control | [9] 100 % of control

CCCCCCCCCCCCCCCCOc1ccc(OC)cc1
inactive: [10] 102 % of control | [11] 92 % of control | [12] 92 % of control

Oc1ccccc1/C=N/c1nc2ccc(Cl)cc2s1.Oc1ccccc1/C=N/c1nc2ccc(Cl)cc2s1.[Zn]
inactive: [13] 90 % of control

O=C1c2ccccc2CCC1(Br)C(Br)c1ccccc1 (stereo not drawn)
inactive: dose: 100.0 mg/kg/injection, schedule: Q04DX003 (ip), vehicle: acetone 96 % of control | dose: 200.0 mg/kg/injection, schedule: Q04DX003 (ip), vehicle: acetone 101 % of control | dose: 400.0 mg/kg/injection, schedule: Q04DX003 (ip), vehicle: acetone 92 % of control

CS(=O)(=O)c1ncc2cnccn12
inactive: dose: 100.0 mg/kg/injection, schedule: Q01DX009 (ip), vehicle: water 101 % of control | dose: 100.0 mg/kg/injection, schedule: Q04DX003 (ip), vehicle: water 109 % of control | dose: 200.0 mg/kg/injection, schedule: Q01DX009 (ip), vehicle: water 109 % of control | dose: 400.0 mg/kg/injection, schedule: Q04DX003 (ip), vehicle: water 110 % of control

COc1cc(Oc2cc(OC)c(OC)c(OC)c2)cc(OC)c1OC
inactive: [14] 97 % of control | [15] 101 % of control | [16] 97 % of control

C1CCN(NC2=NCCO2)CC1
inactive: [17] 95 % of control

CSc1ccccc1NC(=O)c1cccc([N+](=O)[O-])c1
inactive: dose: 100.0 mg/kg/injection, schedule: Q04DX002 (ip), vehicle: Klucel (hydroxypropylcellulose) (HPC) 105 % of control | dose: 200.0 mg/kg/injection, schedule: Q04DX002 (ip), vehicle: Klucel (hydroxypropylcellulose) (HPC) 99 % of control | dose: 400.0 mg/kg/injection, schedule: Q04DX002 (ip), vehicle: Klucel (hydroxypropylcellulose) (HPC) 86 % of control

CC[N+](CC)(CC)CCC[n+]1ccc(/C=N\O)cc1
inactive: [2] 100 % of control | [18] 112 % of control | [3] 100 % of control | [17] 102 % of control | [4] 100 % of control and 92 % of control

CC(NC(=O)C(CCC(=O)O)NC(=O)C(N)Cc1ccc(O)cc1)C(=O)NCCC(=O)NC(Cc1ccc(O)cc1)C(=O)NC(CCC(=O)O)C(=O)NC(C)C(=O)NCCC(=O)NCC(=O)O (stereo not drawn) (H-YEA[βAla]YEA[βAla]G-OH; configuration not given here)
inactive: [5] 93 % of control | [6] 96 % of control | [7] 98 % of control

Cc1nc(Cl)cc(=O)[nH]1
inactive: [19] 90 % of control | [10] 101 % of control | [20] 97 % of control | [11] 90 % of control | dose: 400.0 mg/kg/injection, schedule: Q01DX009 (ip), vehicle: Klucel (hydroxypropylcellulose) (HPC) 90 % of control | [12] 91 % of control

CC(C(=O)c1ccccc1)C(N[N+](C)(C)C)c1ccccc1 (stereo not drawn)
inactive: [21] 91 % of control | dose: 12.5 mg/kg/injection, schedule: Q04DX003 (ip), vehicle: saline 97 % of control | [2] 97 % of control

CC(=O)Nc1nn[nH]n1
inactive: dose: 100.0 mg/kg/injection, schedule: Q01DX001 (ip), vehicle: other 93 % of control | [19] 90 % of control | [14] 94 % of control | dose: 200.0 mg/kg/injection, schedule: Q01DX001 (ip), vehicle: other 96 % of control | [20] 91 % of control | [15] 94 % of control | dose: 400.0 mg/kg/injection, schedule: Q01DX001 (ip), vehicle: other 96 % of control | [16] 90 % of control

O=C(Nc1ccccc1F)c1ccco1
inactive: [19] 100 % of control | [20] 103 % of control

O=Cc1c[nH]c2nccnc12
inactive: [17] 94 % of control | [4] 96 % of control | [22] 97 % of control | [8] 93 % of control | dose: 400.0 mg/kg/injection, schedule: Q01DX009 (ip), vehicle: saline 100 % of control | [9] 93 % of control

Cn1[nH]cc(/C=N/C(N)=O)c1=O
inactive: [13] 93 % of control | [23] 91 % of control | [24] 87 % of control

CCOC(=O)C1C(=O)C(C(=O)Nc2ccccc2)C(=O)C(C(=O)OCC)C1c1ccc(OC)c(OC)c1OC (stereo not drawn)
inactive: [1] 96 % of control | [25] 100 % of control | [26] 94 % of control

COC(=O)C(CC(C)C)NC(=O)C(CC(N)=O)NC(=O)OCc1ccccc1 (stereo not drawn) (Cbz-Asn-Leu-OMe; configuration not given here)
inactive: [13] 96 % of control | [23] 93 % of control | [24] 98 % of control

C1CC(=NN=C2CCSCC2)CCS1
inactive: [4] 96 % of control | [8] 94 % of control | [9] 123 % of control

CCOC(=O)/C=C/C(=O)O.[Cu+2]
inactive: dose: 3.12 mg/kg/injection, schedule: Q04DX003 (ip), vehicle: saline 94 % of control | [21] 89 % of control and 91 % of control

Cc1ccc(S(=O)(=O)OCC2OCOC2C2OCOC2CI)cc1 (stereo not drawn)
inactive: [25] 101 % of control | [26] 101 % of control | dose: 400.0 mg/kg/injection, schedule: Q01DX001 (ip), vehicle: saline with Tween-80 93 % of control

Oc1ccc(CNCCNCCNCc2ccc(O)cc2)cc1
inactive: dose: 12.5 mg/kg/injection, schedule: Q01DX009 (ip), vehicle: saline 87 % of control | dose: 25.0 mg/kg/injection, schedule: Q01DX009 (ip), vehicle: saline 102 % of control | [2] 110 % of control | [18] 93 % of control | [3] 95 % of control | [17] 102 % of control and 92 % of control | [4] 98 % of control and 92 % of control | [22] 105 % of control
